From ChEMBL document CHEMBL1125463, “Inhibition of N8-acetylspermidine deacetylase by active-site-directed metal coordinating inhibitors” (J Med Chem, 1992) come the findings set out here.

Experiment [1] can be described thus: In vitro inhibition of N8-Acetylspermidine deacetylase from rat liver cytosol(apparent Ki). The following applies: for Ki: read-out: Ki app.
A short description of experiment [2]: (§1) In vitro inhibition of N8-Acetylspermidine deacetylase from rat liver cytosol. The note with it: read-out: Ki app.
A short description of experiment [3]: In vitro inhibition of N8-Acetylspermidine deacetylase from rat liver cytosol(apparent Ki); Ni means no inhibition.
The species named for another experiment is Rattus norvegicus. The experiment is described as §1.

`c1cnc2c(c1)ccc1cccnc12` [PHENANTHROLINE]: the Ki in experiment [1] is 1300 µM.

Consider `c1ccc(-c2ccccn2)nc1` [DIPYRIDYL], for which the Ki in experiment [2] stood at 1900 µM.

`NC(=O)CI` [IODOACETAMIDE]: the Ki app result in experiment [3] is given as “Not Active”.

Take `NCCCCCC(=O)O` [AMINOCAPROIC ACID]: in experiment [1], the Ki came to 50 µM.

In the case of `CC(=O)NCCCCN`, the Ki in experiment [1] amounted to 800 µM.

As for `NCCCCC(=O)O` [5-AMINOVALERIC ACID], in experiment [1], the Ki amounted to 4100 µM.

On to `CC(=O)NCCCCNCCCN`, for which the Michaelis-Menten constant (Km) in the experiment listed under Rattus norvegicus stood at 11 µM.

With `c1cnc2ccc3ncccc3c2c1`, in experiment [1], the Ki app result is given as “No inhibition”.

Take `O=C(O)CN(CCN(CC(=O)O)CC(=O)O)CC(=O)O` [EDETIC ACID]: the Ki in experiment [2] was 3500 µM.

`NCCCNCCCCCC(=O)NO`: the Ki in experiment [1] worked out at 0.001 µM.

Regarding `NCCCNCCCCCC(=O)O`, the Ki in experiment [2] is 11 µM.

Turning to Para-Hydroxymercuribenzoic acid, in experiment [1], the Ki amounted to 150 µM.

For the compound `CCN1C(=O)C=CC1=O` [N-ETHYLMALEIMIDE], in experiment [1], the Ki amounted to 860 µM.

Consider `CCCC(=O)[O-].[Na+]` [SODIUM BUTYRATE], for which the Ki in experiment [1] was determined as 38500 µM.
